A word on the IC50: it is the concentration that inhibits the measured activity by half.

Molecules are shown by their SMILES. Like-named read-outs stand apart in the source and are kept apart here.

We go through 29 compounds from patent US9656988B2 (Pharmacyclics LLC, priority 2013, dated 2017).

The target of the experiment is BTK (Homo sapiens (Human), UniProt Q06187). The experiment in a line: Btk in vitro inhibitory activity (one of Method A TR-FRET, Method B electrophoretic mobility shift, Method C radiometric filter binding). The class given is biochemical. In general terms: In EMSA bound probe runs differently from free probe, usually more slowly.
The mark [1] stands for this setting: determined using one of the methods of Example 355a, 355b and 355c, read-out: BTK IC50.

Sequence of BTK (Q06187 whole entry): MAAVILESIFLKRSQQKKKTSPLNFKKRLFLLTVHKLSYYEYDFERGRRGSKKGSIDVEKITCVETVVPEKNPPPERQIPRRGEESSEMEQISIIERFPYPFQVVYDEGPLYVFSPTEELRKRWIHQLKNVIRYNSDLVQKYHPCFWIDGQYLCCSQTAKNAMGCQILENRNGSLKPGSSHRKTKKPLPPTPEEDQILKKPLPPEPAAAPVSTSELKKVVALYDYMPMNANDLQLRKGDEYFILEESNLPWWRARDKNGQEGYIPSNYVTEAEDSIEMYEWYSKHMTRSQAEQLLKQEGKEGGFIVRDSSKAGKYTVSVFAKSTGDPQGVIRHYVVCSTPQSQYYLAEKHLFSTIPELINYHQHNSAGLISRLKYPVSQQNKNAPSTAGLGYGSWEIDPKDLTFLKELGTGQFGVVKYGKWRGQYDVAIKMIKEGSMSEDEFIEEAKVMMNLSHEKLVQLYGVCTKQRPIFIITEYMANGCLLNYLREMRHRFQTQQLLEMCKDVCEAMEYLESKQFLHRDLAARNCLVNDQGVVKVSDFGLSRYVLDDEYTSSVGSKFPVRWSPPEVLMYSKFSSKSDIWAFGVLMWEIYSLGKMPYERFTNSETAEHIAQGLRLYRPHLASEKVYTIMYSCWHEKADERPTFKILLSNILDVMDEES

Regarding `CN(C)C(=O)N[C@@H]1CCCN(c2cnc(C(N)=O)c(Nc3ccc(F)cc3)n2)C1` [Example 179, (R)-5-(3-(3,3-dimethylureido)piperidin-1-yl)-3-(4-fluorophenylamino)pyrazine-2-carboxamide], the half-inhibitory concentration (IC50) is, setting by setting: under setting [1], 0.01 to 0.1 µM; (read-out: Btk (IC50)) 0.01 to 0.1 µM.

As to `CN(C)C(=O)N[C@@H]1CCCN(c2cnc(C(N)=O)c(Nc3ccccc3)n2)C1` [Example 180, (R)-5-(3-(3,3-dimethylureido)piperidin-1-yl)-3-(phenylamino)pyrazine-2-carboxamide], the IC50 under setting [1] lay in the range of 0.1 to 1 µM. On the same count and under the same terms, next, `CN(C)C(=O)N[C@@H]1CCCN(c2cnc(C(N)=O)c(Nc3ccc(Cl)cc3)n2)C1` [Example 181, (R)-3-(4-chlorophenylamino)-5-(3-(3,3-dimethylureido)piperidin-1-yl)pyrazine-2-carboxamide]: 0.01 to 0.1 µM. Turning to `COc1cc(Nc2nc(N3CCC[C@@H](NC(=O)N(C)C)C3)cnc2C(N)=O)ccc1Cl` [Example 182, (R)-3-(4-chloro-3-methoxyphenylamino)-5-(3-(3,3-dimethylureido)piperidin-1-yl)pyrazine-2-carboxamide], the IC50 (Btk (IC50)) lay in the range of 0.1 to 1 µM and the IC50 under setting [1] fell in the range of 0.1 to 1 µM.

Turning to `COc1cc(Nc2nc(N3CCC[C@@H](NC(=O)N(C)C)C3)cnc2C(N)=O)ccc1C` [Example 183, (R)-5-(3-(3,3-dimethylureido)piperidin-1-yl)-3-(3-methoxy-4-methylphenylamino)pyrazine-2-carboxamide], the 50% inhibitory concentration (IC50) was in the range of 0.1 to 1 µM. Moreover, under setting [1], the half-inhibitory concentration (IC50) fell in the range of 0.1 to 1 µM. In the case of `Cc1nc(Nc2nc(N3CCC[C@@H](NC(=O)N(C)C)C3)cnc2C(N)=O)ccc1F` [Example 184, (R)-5-(3-(3,3-dimethylureido)piperidin-1-yl)-3-(5-fluoro-6-methylpyridin-2-ylamino)pyrazine-2-carboxamide], the half-maximal inhibitory concentration (IC50) was 0.1 to 1 µM. Further, under setting [1], the half-inhibitory concentration (IC50) was in the range of 1 to 10 µM. For `CN(C)C(=O)N[C@@H]1CCCN(c2cnc(C(N)=O)c(Nc3ccn(C)c(=O)c3)n2)C1` [Example 185, (R)-5-(3-(3,3-dimethylureido)piperidin-1-yl)-3-(1-methyl-2-oxo-1,2-dihydropyridin-4-ylamino)pyrazine-2-carboxamide], the IC50 (Btk (IC50)) lay in the range of 0.1 to 1 µM and the IC50 under setting [1] was 0.1 to 1 µM. For `CN(C)C(=O)N[C@@H]1CCCN(c2cnc(C(N)=O)c(Nc3ccc(=O)n(C)c3)n2)C1` [Example 186, (R)-5-(3-(3,3-dimethylureido)piperidin-1-yl)-3-(1-methyl-6-oxo-1,6-dihydropyridin-3-ylamino)pyrazine-2-carboxamide], the IC50 is 0.01 to 0.1 µM (Btk (IC50)) and 0.01 to 0.1 µM under setting [1].

With `Cc1cc(Nc2nc(N3CCC[C@@H](NC(=O)N(C)C)C3)cnc2C(N)=O)sn1` [Example 187, (R)-5-(3-(3,3-dimethylureido)piperidin-1-yl)-3-(3-methylisothiazol-5-ylamino)pyrazine-2-carboxamide], the IC50 (Btk (IC50)) was 0.01 to 0.1 µM and the concentration for half-maximal inhibition (IC50) under setting [1] was 0.01 to 0.1 µM.

Consider `CC(C)Oc1ccc(Nc2nc(N3CCC[C@@H](NC(=O)N(C)C)C3)cnc2C(N)=O)cc1` [Example 188, (R)-5-(3-(3,3-dimethylureido)piperidin-1-yl)-3-(4-isopropoxyphenylamino)pyrazine-2-carboxamide], for which the half-inhibitory concentration (IC50) was less than 0.01 µM under setting [1] and less than 0.01 µM (read-out: Btk (IC50)). Consider `CN(C)C(=O)N[C@@H]1CCCN(c2cnc(C(N)=O)c(Nc3ccc(OC4CCCC4)cc3)n2)C1` [Example 189, (R)-3-(4-(cyclopentyloxy)phenylamino)-5-(3-(3,3-dimethylureido)piperidin-1-yl)pyrazine-2-carboxamide], for which the half-maximal inhibitory concentration (IC50) was 0.01 to 0.1 µM (Btk (IC50)) and 0.01 to 0.1 µM under setting [1].

Regarding `CN(C)CCOc1ccc(Nc2nc(N3CCC[C@@H](NC(=O)N(C)C)C3)cnc2C(N)=O)cc1` [Example 191, (R)-3-(4-(2-(dimethylamino)ethoxy)phenylamino)-5-(3-(3,3-dimethylureido)piperidin-1-yl)pyrazine-2-carboxamide], the IC50 lay in the range of 0.01 to 0.1 µM (Btk (IC50)) and 0.01 to 0.1 µM under setting [1]. `CN(C)C(=O)N[C@@H]1CCCN(c2cnc(C(N)=O)c(Nc3ccc([N+](=O)[O-])cc3)n2)C1` [Example 192, (R)-5-(3-(3,3-dimethylureido)piperidin-1-yl)-3-(4-nitrophenylamino)pyrazine-2-carboxamide]: the IC50 by setting is: (Btk (IC50)) 0.01 to 0.1 µM; under setting [1], 0.01 to 0.1 µM. `CN(C)Cc1ccc(Nc2nc(N3CCC[C@@H](NC(=O)N(C)C)C3)cnc2C(N)=O)cc1` [Example 193, (R)-3-(4-((dimethylamino)methyl)phenylamino)-5-(3-(3,3-dimethylureido)piperidin-1-yl)pyrazine-2-carboxamide]: the 50% inhibitory concentration (IC50) is, setting by setting: (Btk (IC50)) 0.01 to 0.1 µM; under setting [1], 0.01 to 0.1 µM. For `CN(C)C(=O)N[C@@H]1CCCN(c2cnc(C(N)=O)c(Nc3ccc(C(=O)N(C)C)cc3)n2)C1` [Example 194, (R)-3-(4-(dimethylcarbamoyl)phenylamino)-5-(3-(3,3-dimethylureido)piperidin-1-yl)pyrazine-2-carboxamide], the half-maximal inhibitory concentration (IC50) runs as follows: under setting [1], less than 0.01 µM; (read-out: Btk (IC50)) less than 0.01 µM. Take `CN(C)C(=O)N[C@@H]1CCCN(c2cnc(C(N)=O)c(Nc3ccc(C(=O)N4CCCC4)cc3)n2)C1` [Example 195, (R)-5-(3-(3,3-dimethylureido)piperidin-1-yl)-3-(4-(pyrrolidine-1-carbonyl)phenylamino)pyrazine-2-carboxamide]: the IC50 under setting [1] was less than 0.01 µM. Same read-out and setting: next, `CN(C)C(=O)N[C@@H]1CCCN(c2cnc(C(N)=O)c(Nc3ccc(C(=O)Nc4ccccn4)cc3)n2)C1` [Example 196, (R)-5-(3-(3,3-dimethylureido)piperidin-1-yl)-3-(4-(pyridin-2-ylcarbamoyl)phenylamino)pyrazine-2-carboxamide]: 0.01 to 0.1 µM. For `CN(C)C(=O)N[C@@H]1CCCN(c2cnc(C(N)=O)c(Nc3ccc(C(C)(C)C#N)cc3)n2)C1` [Example 197, (R)-3-(4-(2-cyanopropan-2-yl)phenylamino)-5-(3-(3,3-dimethylureido)piperidin-1-yl)pyrazine-2-carboxamide], the concentration for half-maximal inhibition (IC50) under setting [1] was less than 0.01 µM and the IC50 (read-out: Btk (IC50)) was less than 0.01 µM. On to `CN(C)C(=O)N[C@@H]1CCCN(c2cnc(C(N)=O)c(Nc3ccc(C(C)(C)C(N)=O)cc3)n2)C1` [Example 198, (R)-3-(4-(1-amino-2-methyl-1-oxopropan-2-yl)phenylamino)-5-(3-(3,3-dimethylureido)piperidin-1-yl)pyrazine-2-carboxamide], for which the 50% inhibitory concentration (IC50) is, setting by setting: under setting [1], 0.01 to 0.1 µM; (read-out: Btk (IC50)) 0.01 to 0.1 µM. For the compound `CN(C)C(=O)N[C@@H]1CCCN(c2cnc(C(N)=O)c(Nc3ccc(C4(C#N)CC4)cc3)n2)C1` [Example 199, (R)-3-(4-(1-cyanocyclopropyl)phenylamino)-5-(3-(3,3-dimethylureido)piperidin-1-yl)pyrazine-2-carboxamide], the IC50 is less than 0.01 µM under setting [1] and less than 0.01 µM (read-out: Btk (IC50)). Take `CN(C)C(=O)N[C@@H]1CCCN(c2cnc(C(N)=O)c(Nc3ccc(C4(CN)CC4)cc3)n2)C1` [Example 201, (R)-3-(4-(1-(aminomethyl)cyclopropyl)phenylamino)-5-(3-(3,3-dimethylureido)piperidin-1-yl)pyrazine-2-carboxamide]: the IC50 under setting [1] is 0.01 to 0.1 µM. For `CN(C)C(=O)N[C@@H]1CCCN(c2cnc(C(N)=O)c(Nc3ccc(C4(C(=O)N(C)C)CC4)cc3)n2)C1` [Example 202, (R)-3-(4-(1-(dimethylcarbamoyl)cyclopropyl)phenylamino)-5-(3-(3,3-dimethylureido)piperidin-1-yl)pyrazine-2-carboxamide], the 50% inhibitory concentration (IC50) is, setting by setting: under setting [1], less than 0.01 µM; (read-out: Btk (IC50)) less than 0.01 µM.

For `CN(C)C(=O)N[C@@H]1CCCN(c2cnc(C(N)=O)c(Nc3ccc(C4(C#N)CCCC4)cc3)n2)C1` [Example 203, (R)-3-(4-(1-cyanocyclopentyl)phenylamino)-5-(3-(3,3-dimethylureido)piperidin-1-yl)pyrazine-2-carboxamide], the half-maximal inhibitory concentration (IC50) runs as follows: (Btk (IC50)) less than 0.01 µM; under setting [1], less than 0.01 µM. Take `CN(C)C(=O)N[C@@H]1CCCN(c2cnc(C(N)=O)c(Nc3ccc(C4(CN)CCCC4)cc3)n2)C1` [Example 204, (R)-3-(4-(1-(aminomethyl)cyclopentyl)phenylamino)-5-(3-(3,3-dimethylureido)piperidin-1-yl)pyrazine-2-carboxamide]: the half-maximal inhibitory concentration (IC50) reads like this: under setting [1], 0.01 to 0.1 µM; (read-out: Btk (IC50)) 0.01 to 0.1 µM.

Turning to `CCN1CCC(c2ccc(Nc3nc(N4CCC[C@@H](NC(=O)N(C)C)C4)cnc3C(N)=O)cc2)CC1` [Example 207, (R)-5-(3-(3,3-dimethylureido)piperidin-1-yl)-3-(4-(1-ethylpiperidin-4-yl)phenylamino)pyrazine-2-carboxamide], the concentration for half-maximal inhibition (IC50) lay within 0.01 to 0.1 µM (Btk (IC50)) and 0.01 to 0.1 µM under setting [1].

On to `CC(C)N1CCC(c2ccc(Nc3nc(N4CCC[C@@H](NC(=O)N(C)C)C4)cnc3C(N)=O)cc2)CC1` [Example 208, (R)-5-(3-(3,3-dimethylureido)piperidin-1-yl)-3-(4-(1-isopropylpiperidin-4-yl)phenylamino)pyrazine-2-carboxamide], for which the IC50 by setting is: under setting [1], less than 0.01 µM; (read-out: Btk (IC50)) less than 0.01 µM. Take `CC(C)[N+]1([O-])CCC(c2ccc(Nc3nc(N4CCC[C@@H](NC(=O)N(C)C)C4)cnc3C(N)=O)cc2)CC1` (stereo partly drawn) [Example 209, (R)-4-(4-(3-carbamoyl-6-(3-(3,3-dimethylureido)piperidin-1-yl)pyrazin-2-ylamino)phenyl)-1-isopropylpiperidine 1-oxide]: the 50% inhibitory concentration (IC50) under setting [1] was in the range of 0.01 to 0.1 µM.

In the case of `CN(C)C(=O)N[C@@H]1CCCN(c2cnc(C(N)=O)c(Nc3ccc(C4CCN(C5CCCCC5)CC4)cc3)n2)C1` [Example 210, (R)-3-(4-(1-cyclohexylpiperidin-4-yl)phenylamino)-5-(3-(3,3-dimethylureido)piperidin-1-yl)pyrazine-2-carboxamide], the IC50 is, setting by setting: under setting [1], less than 0.01 µM; (read-out: Btk (IC50)) less than 0.01 µM. For the compound `CN(C)C(=O)N[C@@H]1CCCN(c2cnc(C(N)=O)c(Nc3ccc(C4CCNCC4)cc3Cl)n2)C1` [Example 213, (R)-3-(2-chloro-4-(piperidin-4-yl)phenylamino)-5-(3-(3,3-dimethylureido)piperidin-1-yl)pyrazine-2-carboxamide], the half-maximal inhibitory concentration (IC50) by setting is: (Btk (IC50)) 0.01 to 0.1 µM; under setting [1], 0.01 to 0.1 µM.
